# Measured values reported in EP4574151A1, “INHIBITORS OF G12V-MUTATED RAS PROTEIN TO TREAT CANCER” (Personather Spolka Z Ograniczona Odpowiedzialnoscia, priority 2023, dated 2025).
# “Also recorded” adds a separate entry of the source.
# Tests used:
# SW480 cell line = experiment: Western Blot analysis of the RAS-controlled signal transduction pathway in a cancer cell line expressing KRASG12V; format: cell-based; conditions: SW480 cell line with RASG12V mutation; 1, 5 and 10 µM; 24 hours; serum-free
# From the text: Analysis of the impact of the tested compound on the signal transduction pathway controlled by RAS family proteins in cancer cell lines expressing KRASG12V based on the Western Blot method.
# The example illustrates the impact of the PER154A and PER160A molecules on the signal transduction pathway in the cancer cell line SW480.
# • 1. SW480 cell line at 80-90% confluence was rinsed with PBS without Mg2+ and Ca2+ ions. Remove PBS. • 2. Cells were detached from the vessel using Trypsin-EDTA (0.05%, 1x) for 1-3 minutes at 37°C. • 3. Cells were transferred to a 15 ml tube, centrifuged (200xg, 4 min) and suspended in DMEM High Glucose (HG) medium with 10% bovine serum and antibiotics. • 4. Cells were counted. • 5. 5x10^5 cells were added to each well of a 6-well plate for adherent culture. • 6. The above medium was replenished and left for approximately 24 hours.
# • 7. Cells were washed 2-3 times with buffered saline solution without Mg2+ and Ca2+ ions. PBS was carefully removed each time. • 8. 2 ml of DMEM HG medium with antibiotics and without serum was added, left for approximately 24 hours.
# • 9. The cells were washed 2-3 times with buffered saline without Mg2+ and Ca2+ ions. PBS was carefully removed each time. • 10. […]
# NCI-H1975 = experiment: Toxicity against cancer cells expressing wild type RAS; format: cell-based; conditions: summary statement
# Procedure: The results of in vitro analyses were presented in the examples. Commercially available cancer cell lines were used for the studies, including SW480, SW620, and COR-L23, showing endogenous expression of KRASG12V, as well as a cell line with exogenously introduced KRASG12V mutation (using methods of genetic engineering) - the DK-MGEGFRvIIIKRASG12V line. Additionally, the cancer cell line NCI- H1975, characterized by the expression of wild type RASWT proteins, was also analyzed.
# BALB/c mice = experiment: Acute toxicity after oral administration (Acute Toxicity test TG425); format: in vivo; conditions: female BALB/c mice, oral by gastric probe, 40 mg of substance in corn oil, three mice, observed two weeks
# From the text: The study was planned according to Acute Toxicity Test 425 (oral administration) - higher-lower-dose procedure, in accordance with the OECD regulation of October 3, 2008. The test procedure described in these guidelines is useful in minimizing the number of animals needed to estimate the acute toxicity after oral administration of potential drugs. In addition to the LD50 assessment and confidence intervals, the test allows for the observation of signs of toxicity. For this purpose, an experiment was agreed upon with the Local Ethics Committee for Animal Experimentation, using BALB/c mice. The TG425 method allows for the estimation of LD50 values with confidence intervals, and the results allow for the classification of substances according to the global harmonized system for the classification of chemicals that cause acute toxicity.
# A sequential test, utilizing a maximum of 5 animals, was applied, which is known as the limit test. A test dose of either 2000 or uniquely 5000 mg/kg can be used. The testing procedures at 2000 and 5000 mg/kg differ slightly (see Sections 23-25 for the limit test at 2000 mg/kg and Sections 26-30 for the limit test at 5000 mg/kg). The selection of a sequential testing plan increases the statistical power, and a deliberate deviation from the limit test rejection procedure was made for compounds with an LD50 near the limit dose; i.e. committing an error on the side of caution. As with any limit test protocol, the probability of correct compound classification will decrease, as the actual LD50 value more closely resembles the limit dose.
# • 1. Female Balb/c mice, which were 50-56 days postpartum, were used for the purposes of this experiment. • 2. Mice underwent a 1-week quarantine after being transported to the laboratory. • 3. The studied molecules (PER154A, PER160A, PER170A, PER176A) were suspended according to the TG425 protocol, i.e. 40 mg of substance in […] of laboratory corn oil and orally administered through a plastic gastro probe (used: 20ga (0.9 mm OD x 0.5 mm ID), 38 mm), which was suitable for the size of the animal (17-21 g). The mice were observed and weighed almost daily. • 4. Mouse housing conditions: up to 4 mice per cage; temperature: 23.2 - 23.40°C; humidity: 27.6 - 40.9% relative humidity. • 5. Two weeks later (time counted separately for each mouse), a resection was performed to analyze internal organs for any abnormalities.
smiles,measurement,setting,value
O=C(Nc1ccc2c(c1)OCCO2)c1ccc2c(c1)C1C3CCC(C3)C1C(c1ccccc1)N2 (stereo not drawn) [PER154A],"impact on downstream signal transduction pathways in relation to RASG12V (AKT, ERK phosphorylation)",SW480 cell line,Significant impact; also recorded: blocks
same,toxicity against cancer cells expressing normal RAS protein,NCI-H1975,no toxicity
same,safety in acute oral toxicity test,BALB/c mice,safe and safe for mice
O=C(Nc1ccc(F)cc1)c1ccc2c(c1)C1C3CCC(C3)C1C(c1ccccc1)N2 (stereo not drawn) [PER160A],"impact on downstream signal transduction pathways in relation to RASG12V (AKT, ERK phosphorylation)",SW480 cell line,Significant impact; also recorded: blocks
same,toxicity against cancer cells expressing normal RAS protein,NCI-H1975,no toxicity
same,safety in acute oral toxicity test,BALB/c mice,safe for mice
